# Laboratory results published in patent US20160130226A1, “SPIRO-SUBSTITUTED OXINDOLE DERIVATIVES HAVING AMPK ACTIVITY” (BOEHRINGER INGELHEIM INTERNATIONAL GMBH, priority 2013, published 2016).
# Target: T1, AMPK beta 1 (Homo sapiens, UniProt Q13131+Q9Y478)
# T1 construct: in-cell-ELISA for phospho-ACC (Acetyl-CoA carboxylase 1) in HepG2 cells (liver); endogenous in cells; host or cells: HepG2 (assignment to the beta 1 column inferred)
# Experiment: in-cell-ELISA for phospho-ACC: activation of AMPK, beta 1 (HepG2 cells / C2C12 myotubes)
# Format: cell-based
# Settings: 2 h, percentage activation over vehicle control; for activation at 1 µM / activation at 3 µM / activation at 10 µM: read-out: Percentage activation of beta 1 at given concentration; for activation at 1 µM / Percentage activation of beta 1 at given concentration: 1 μM
# Protocol: Activation of AMPK by various compounds were measured using in-cell-ELISA for phospho-ACC (Acetyl-CoA carboxylase 1) in HepG2 cells (liver) and fully differentiated myotubes (C2C12 cells) grown in 96 well plate. Cells were treated with 1 μM, 3 μM or 10 μM of the molecule (Example) for 2 h in serum free DMEM media. After methanol fixation, cells were blocked with BSA followed by addition of anti-phospho ACC antibody (Cell Signaling) and HRP conjugated secondary antibody. Absorbance values taken at 450 nm were normalized with total DNA (Hoechest stain). Results were expressed as percentage activation over vehicle control.
# Percentage activation at compound (Example) concentration of 1, 3 or 10 μM for compounds according to the invention are shown in the following table. The number of the compound corresponds to the number of the Example (Ex) in the experimental section.
# T1 sequence (Q9Y478 2-270 limits assumed): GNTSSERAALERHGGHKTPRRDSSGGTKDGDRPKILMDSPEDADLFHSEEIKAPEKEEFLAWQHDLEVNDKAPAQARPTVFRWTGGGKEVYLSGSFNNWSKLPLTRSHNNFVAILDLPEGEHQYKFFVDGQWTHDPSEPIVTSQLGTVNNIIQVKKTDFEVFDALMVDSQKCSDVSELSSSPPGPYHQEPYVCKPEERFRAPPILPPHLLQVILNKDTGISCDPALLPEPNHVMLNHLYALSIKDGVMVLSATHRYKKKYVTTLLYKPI
# T1 sequence (Q13131 whole entry): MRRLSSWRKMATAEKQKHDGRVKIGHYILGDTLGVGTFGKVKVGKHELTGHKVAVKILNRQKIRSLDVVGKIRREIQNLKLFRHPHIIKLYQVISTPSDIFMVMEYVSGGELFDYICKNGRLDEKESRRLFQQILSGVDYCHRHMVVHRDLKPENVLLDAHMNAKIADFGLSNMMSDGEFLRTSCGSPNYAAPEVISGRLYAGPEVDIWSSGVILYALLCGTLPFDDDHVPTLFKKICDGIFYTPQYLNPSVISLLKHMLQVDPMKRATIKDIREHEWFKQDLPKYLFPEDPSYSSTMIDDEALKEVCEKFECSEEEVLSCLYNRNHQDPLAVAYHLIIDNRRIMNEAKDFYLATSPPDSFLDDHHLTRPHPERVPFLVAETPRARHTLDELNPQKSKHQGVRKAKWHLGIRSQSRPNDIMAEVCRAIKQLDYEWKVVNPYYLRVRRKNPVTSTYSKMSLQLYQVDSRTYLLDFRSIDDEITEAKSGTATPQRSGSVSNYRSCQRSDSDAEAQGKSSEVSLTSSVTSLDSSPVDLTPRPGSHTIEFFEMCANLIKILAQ
# T1 sequence (P54619 whole entry partner): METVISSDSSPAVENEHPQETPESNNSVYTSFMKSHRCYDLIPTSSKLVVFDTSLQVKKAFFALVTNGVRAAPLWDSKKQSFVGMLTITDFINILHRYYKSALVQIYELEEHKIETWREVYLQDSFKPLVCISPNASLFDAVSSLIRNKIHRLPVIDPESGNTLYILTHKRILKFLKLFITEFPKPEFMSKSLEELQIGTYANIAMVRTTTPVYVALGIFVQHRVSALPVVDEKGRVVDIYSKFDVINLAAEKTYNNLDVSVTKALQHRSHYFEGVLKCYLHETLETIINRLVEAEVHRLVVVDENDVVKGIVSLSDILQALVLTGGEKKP
SMILES,activation at 3 µM [%],activation at 10 µM [%],other results
Cc1ccc(C2CC23C(=O)Nc2cc(Cl)c(-c4ccc(-c5ccncc5)cc4)cc23)cc1CC(=O)O (stereo not shown) [Example 63],–,–,activation at 1 µM: 42%
O=C(O)Cc1cccc(C2CC23C(=O)Nc2cc(Cl)c(-c4ccc(-c5cccnc5)cc4)cc23)c1 (stereo not shown) [Example 65],–,89,–
Cc1ccc(C2CC23C(=O)Nc2cc(Cl)c(-c4ccc(N5CCOCC5)cc4)cc23)cc1C(=O)O (stereo not shown) [Example 66],–,36,–
Cc1ccc(C2CC23C(=O)Nc2cc(Cl)c(-c4ccc(N5CCOCC5)c(F)c4)cc23)cc1C(=O)O (stereo not shown) [Example 71],–,40,–
Cc1ccc(C2CC23C(=O)Nc2cc(Cl)c(-c4ccc(-c5ccccc5)cn4)cc23)cc1C(=O)O (stereo not shown) [Example 75],–,54,–
COc1ccc(C2CC23C(=O)Nc2cc(Cl)c(-c4ccc(-c5ccccc5)cn4)cc23)cc1C(=O)O (stereo not shown) [Example 77],–,17,–
Cc1ccc(C2CC23C(=O)Nc2cc(Cl)c(C#Cc4ccncc4)cc23)cc1C(=O)O (stereo not shown) [Example 79],–,112,–
COc1ccc(C2CC23C(=O)Nc2cc(F)c(-c4ccc(-c5ccncc5)cc4)cc23)cc1C(=O)O (stereo not shown) [Example 84],–,75,–
Cc1ccc(C2CC23C(=O)Nc2cc(Cl)c(-c4ccc(-c5ccccc5S(C)(=O)=O)cc4)cc23)cc1C(=O)O (stereo not shown) [Example 87],–,47,–
CN(C)c1cc(-c2ccc(-c3cc4c(cc3Cl)NC(=O)C43CC3c3cccc(CC(=O)O)c3)cc2)ccn1 (stereo not shown) [Example 88],–,132,–
Cc1ccc(C2CC23C(=O)Nc2cc(Cl)c(S(=O)(=O)NC4CC4)cc23)cc1C(=O)O (stereo not shown) [Example 90],–,25,–
Cc1ccc(C2CC23C(=O)Nc2cc(Cl)c(S(=O)(=O)NC4CCC4)cc23)cc1C(=O)O (stereo not shown) [Example 91],–,10,–
Cc1ccc(C2CC23C(=O)Nc2cc(Cl)c(S(=O)(=O)Nc4ccccc4O)cc23)cc1C(=O)O (stereo not shown) [Example 92],–,16,–
Cc1ccc(C2CC23C(=O)Nc2cc(Cl)c(-c4ccc5cc[nH]c5c4)cc23)cc1C(=O)O (stereo not shown) [Example 93],–,51,–
Cc1ccc(C2CC23C(=O)Nc2cc(Cl)c(-c4ccc5[nH]ccc5c4)cc23)cc1C(=O)O (stereo not shown) [Example 94],–,137,–
Cc1ccc(C2CC23C(=O)Nc2cc(Cl)c(-c4ccc(-c5ccc(-n6cncn6)cc5)cc4)cc23)cc1C(=O)O (stereo not shown) [Example 116],100,–,–
Cc1ccc(C2CC23C(=O)Nc2cc(Cl)c(-c4ccc(-c5ccc(-n6cncn6)cc5)cc4)cc23)cc1C(=O)O (stereo not shown) [Example 117],–,–,Percentage activation of beta 1 at given concentration: 165% at 1 μM
Cc1ccc(C2CC23C(=O)Nc2cc(Cl)c(-c4ccc(-c5ccc(-n6cncn6)cc5)cc4)cc23)cc1C(=O)O (stereo not shown) [Example 119],–,–,Percentage activation of beta 1 at given concentration: 99% at 1 μM
Cn1cc(C2CC23C(=O)Nc2cc(Cl)c(-c4ccc(-c5ccc(-n6cccn6)cc5)cc4)cc23)cc1C(=O)O (stereo not shown) [Example 120],–,48,–
COc1ccc(C2CC23C(=O)Nc2cc(Cl)c(-c4ccc(-c5ccc(-n6cccn6)cc5)cc4)cc23)cc1C(=O)O (stereo not shown) [Example 121],91,–,–
Cn1cc(C2CC23C(=O)Nc2cc(Cl)c(-c4ccc(-c5ccc(-n6cncn6)cc5)cc4)cc23)cc1C(=O)O (stereo not shown) [Example 126],–,–,activation at 1 µM: 38%

SMILES,activation at 3 µM [%],activation at 10 µM [%],other results
O=C(O)Cc1ccc(C2CC23C(=O)Nc2cc(Cl)c(-c4ccc(-c5ccc(-n6cncn6)cc5)cc4)cc23)cc1 (stereo not shown) [Example 127],71,–,–
O=C(O)Cc1cccc(C2CC23C(=O)Nc2cc(Cl)c(-c4ccc(-c5ccc(-n6cncn6)cc5)cc4)cc23)c1 (stereo not shown) [Example 129],15,–,–
CC(C)c1ccc(C2CC23C(=O)Nc2cc(Cl)c(-c4ccc(-c5ccc(-n6cncn6)cc5)cc4)cc23)cc1C(=O)O (stereo not shown) [Example 131],47,–,–
Cc1ccc(C2CC23C(=O)Nc2cc(Cl)c(-c4ccc(-c5ccc(-c6nnn[nH]6)cc5)cc4)cc23)cc1C(=O)O (stereo not shown) [Example 136],19,–,–
CC(C)(C(=O)O)c1ccc(C2CC23C(=O)Nc2cc(Cl)c(-c4ccc(-c5ccc(-n6cncn6)cc5)cc4)cc23)cc1 (stereo not shown) [Example 137],48,–,–
Cc1ccc(C2CC23C(=O)Nc2cc(Cl)c(-c4ccc(-c5ccc(-n6cnnn6)cc5)cc4)cc23)cc1C(=O)O (stereo not shown) [Example 140],21,–,–
Cc1ccc(C2CC23C(=O)Nc2cc(F)c(-c4ccc(-c5ccc(-n6cccn6)cc5)cc4)cc23)cc1C(=O)O (stereo not shown) [Example 141],104,–,–
Cc1ccc(C2CC23C(=O)Nc2cc(F)c(-c4ccc(-c5ccc(-n6cccn6)cc5)cc4)cc23)cc1C(=O)O (stereo not shown) [Example 144],–,–,Percentage activation of beta 1 at given concentration: 118% at 1 μM
Cc1ccc(C2CC23C(=O)Nc2cc(F)c(-c4ccc(-c5ccc(-n6cncn6)cc5)cc4)cc23)cc1C(=O)O (stereo not shown) [Example 147],–,–,Percentage activation of beta 1 at given concentration: 32% at 1 μM
Cc1ccc(C2CC23C(=O)Nc2cc(F)c(-c4ccc(-c5ccc(-n6cncn6)cc5)cc4)cc23)cc1C(=O)O (stereo not shown) [Example 148],–,–,Percentage activation of beta 1 at given concentration: 127% at 1 μM
Cc1ccc(C2CC23C(=O)Nc2cc(Cl)c(-c4ccc(-c5ccc(-n6cncn6)cc5)c(F)c4)cc23)cc1C(=O)O (stereo not shown) [Example 151],–,–,Percentage activation of beta 1 at given concentration: 25% at 1 μM
Cc1ccc(C2CC23C(=O)Nc2cc(Cl)c(-c4ccc(-c5ccc(-n6cncn6)cc5)c(F)c4)cc23)cc1C(=O)O (stereo not shown) [Example 152],–,–,Percentage activation of beta 1 at given concentration: 95% at 1 μM
Cc1ccc(C2CC23C(=O)Nc2c3cc(-c3ccc(-c4ccc(-n5cccn5)cc4)cc3)c(Cl)c2Cl)cc1C(=O)O (stereo not shown) [Example 153],–,–,activation at 1 µM: 10%
Cc1ccc(C2CC23C(=O)Nc2c(F)cc(-c4ccc(-c5ccc(-n6cncn6)cc5)cc4)cc23)cc1C(=O)O (stereo not shown) [Example 155],–,–,activation at 1 µM: 28%
Cc1ccc(C2CC23C(=O)Nc2cc(F)c(-c4ccc(-c5ccc6c(cnn6C)c5)cc4)cc23)cc1C(=O)O (stereo not shown) [Example 160],–,–,activation at 1 µM: 11%
CC(C)(C(=O)O)c1ccc(C2CC23C(=O)Nc2cc(F)c(-c4ccc(-c5ccc(-n6cncn6)cc5)cc4)cc23)cc1 (stereo not shown) [Example 161],–,–,Percentage activation of beta 1 at given concentration: 115% at 1 μM
CC(C)(C(=O)O)c1ccc(C2CC23C(=O)Nc2cc(F)c(-c4ccc(-c5ccc(-n6cncn6)cc5)cc4)cc23)cc1 (stereo not shown) [Example 163],–,–,Percentage activation of beta 1 at given concentration: 131% at 1 μM
COc1ccc(C2CC23C(=O)Nc2cc(F)c(-c4ccc(-c5ccc(-n6cccn6)cc5)cc4)cc23)cc1C(=O)O (stereo not shown) [Example 164],–,–,activation at 1 µM: 19%
Cc1ccc(C2CC23C(=O)Nc2cc(Cl)c(-c4ccc(-n5cccn5)cc4)cc23)cc1C(=O)O (stereo not shown) [Example 166],62,–,–
O=C(O)Cc1cccc(C2CC23C(=O)Nc2cc(F)c(-c4ccc(-c5ccc(-n6cccn6)cc5)cc4)cc23)c1 (stereo not shown) [Example 171],–,–,activation at 1 µM: 44%

# Second part, led by results:
activation at 3 µM [%],activation at 10 µM [%],SMILES,other results
81,–,Cc1ccc(C2CC23C(=O)Nc2cc(Cl)c(-c4ccc(-c5ccncc5)cc4)cc23)cc1CC(=O)O (stereo not shown) [Example 64],–
80,–,Cc1ccc(C2CC23C(=O)Nc2cc(Cl)c(-c4ccc(-c5ccncc5)c(F)c4)cc23)cc1C(=O)O (stereo not shown) [Example 67],–
59,–,COc1ccc(C2CC23C(=O)Nc2cc(Cl)c(-c4ccc(-c5ccncc5)cc4)cc23)cc1CC(=O)O (stereo not shown) [Example 70],–
–,23,COc1ccc(C2CC23C(=O)Nc2cc(Cl)c(-c4ccc(-c5ccncc5)cc4)cc23)cc1C(=O)O (stereo not shown) [Example 73],–
–,66,Cc1ccc(C2CC23C(=O)Nc2cc(Cl)c(-c4ccc(-c5ccccn5)cc4)cc23)cc1C(=O)O (stereo not shown) [Example 78],–
55,–,Cc1ccc(C2CC23C(=O)Nc2cc(F)c(-c4ccc(-c5ccncc5)cc4)cc23)cc1C(=O)O (stereo not shown) [Example 81],–
–,92,Cc1ccc(C2CC23C(=O)Nc2cc(Cl)c(-c4ccc(-c5ccncc5)cc4)nc23)cc1C(=O)O (stereo not shown) [Example 83],–
–,127,Cc1ccc(C2CC23C(=O)Nc2cc(Cl)c(-c4ccc(-c5cnn(C)c5)cc4)cc23)cc1C(=O)O (stereo not shown) [Example 85],–
66,–,COCN1C(=O)C2(CC2c2ccc(C)c(C(=O)O)c2)c2cc(-c3ccc(-c4ccncc4)cc3)c(Cl)cc21 (stereo not shown) [Example 99],–
134,–,Cc1ccc(C2CC23C(=O)N(C)c2cc(Cl)c(-c4ccc(-c5ccncc5)cc4)cc23)cc1C(=O)O (stereo not shown) [Example 100],–
56,–,Cc1ccc(C2CC23C(=O)N(C(C)C)c2cc(Cl)c(-c4ccc(-c5ccncc5)cc4)cc23)cc1C(=O)O (stereo not shown) [Example 104],–
81,–,Cc1ccc(C2CC23C(=O)N(CCO)c2cc(Cl)c(-c4ccc(-c5ccncc5)cc4)cc23)cc1C(=O)O (stereo not shown) [Example 105],–
99,–,CCN1C(=O)C2(CC2c2ccc(OC)c(C(=O)O)c2)c2cc(-c3ccc(-c4ccncc4)cc3)c(Cl)cc21 (stereo not shown) [Example 106],–
83,–,Cc1ccc(C2CC23C(=O)N(CC2CC2)c2cc(Cl)c(-c4ccc(-c5ccncc5)cc4)cc23)cc1C(=O)O (stereo not shown) [Example 109],–
58,–,CCN1C(=O)C2(CC2c2ccc(OC)c(CC(=O)O)c2)c2cc(-c3ccc(-c4ccncc4)cc3)c(Cl)cc21 (stereo not shown) [Example 110],–
30,–,CN1C(=O)C2(CC2c2ccc(C(C)(C)C(=O)O)cc2)c2cc(-c3ccc(-c4ccncc4)cc3)c(Cl)cc21 (stereo not shown) [Example 112],–
–,51,CCN1C(=O)C2(CC2c2ccc(C)c(CC(=O)O)c2)c2cc(-c3ccc(-c4ccncc4)cc3)c(Cl)cc21 (stereo not shown) [Example 113],–
